# Test results reported in the NIST ThermoML archive (doi:10.1016/j.jct.2016.02.007).
# ± gives the expanded uncertainty stated by the source.
# Key:
# [1] = 101.3 kPa, Liquid, Vibrating tube method
# [2] = wn = mass fraction of the nth substance listed; details: 101.3 kPa, Liquid, Vibrating tube method, w2 = 0
Structure (SMILES),mass density ([1]; 293.15 K) [kg/m3],mass density ([1]; 298.15 K) [kg/m3],mass density ([1]; 303.15 K) [kg/m3],mass density ([1]; 308.15 K) [kg/m3],mass density ([1]; 313.15 K) [kg/m3],mass density ([1]; 318.15 K) [kg/m3],mass density ([1]; 323.15 K) [kg/m3],mass density ([1]; 328.15 K) [kg/m3],mass density ([1]; 333.15 K) [kg/m3],mass density ([1]; 338.15 K) [kg/m3],mass density ([1]; 343.15 K) [kg/m3],mass density ([2]; 313.15 K) [kg/m3],mass density ([2]; 318.15 K) [kg/m3],mass density ([2]; 323.15 K) [kg/m3],mass density ([2]; 328.15 K) [kg/m3],mass density ([2]; 333.15 K) [kg/m3],mass density ([2]; 338.15 K) [kg/m3],mass density ([2]; 343.15 K) [kg/m3]
CN(C)CCCO [3-dimethylamino-1-propanol],886.7 ± 4.8,883 ± 4.8,879.1 ± 4.8,875.1 ± 4.8,871.2 ± 4.8,867.2 ± 4.8,863.1 ± 4.8,859.1 ± 4.8,855 ± 4.8,850.8 ± 4.8,846.7 ± 4.8,,,,,,,
O [water],,,,,992.3 ± 1,990.3 ± 1,988 ± 1,985.6 ± 1,983.3 ± 1,980.7 ± 1,977.9 ± 1,,,,,,,
O [water] + CN(C)CCCO,,,,,,,,,,,,992.3 ± 4.8,990.3 ± 4.8,988 ± 4.8,985.6 ± 4.8,983.3 ± 4.8,980.7 ± 4.8,977.9 ± 4.8
